Data published in patent US20200163984A1, “USE OF ISOVALERYL SPIRAMYCIN I, II AND/OR III IN MANUFACTURING MEDICAMENT FOR TREATING AND/OR PREVENTING TUMOR, AND MEDICAMENT” (SHENYANG FUYANG PHARMACEUTICAL TECHNOLOGY CO., LTD., priority 2017, published 2020).

What was measured:
[1] = tested on: transplanted tumor of human lymphoma cell U937; test: U937 transplanted tumor in nude mice; details: for tumor volume and relative tumor volume compared with the model group: low, medium and high doses, P<0.05; for Tumor Volume (mm3) (d 1): d1; for mouse weight compared with the model group / Body Weight (g) (d1) / Body Weight (g) (d30): in vivo, mouse
Procedure: U937 cells in a logarithmic growth phase were taken and subjected to a trypan blue exclusion experiment showing that the cell viability was more than 95%, then the cells were subjected to trypsinization, centrifugation, and supernatant removal. Then cell concentration was adjusted to 1×10^7/ml with matrigel, then each nude mouse was inoculated subcutaneously with 0.2 ml of cells at its right armpit and recorded as the first day of inoculation. When the tumor grows to be greater than or equal to 100 mm^3, the mice were randomly divided into 11 groups with 6 mice in each group: a model group, a cyclophosphamide group, isovaleryl spiramycin I groups with doses of 25, 50 and 100 mg/kg, isovaleryl spiramycin II groups with doses of 25, 50 and 100 mg/kg, and isovaleryl spiramycin III groups with doses of 25, 50 and 100 mg/kg. Each group was continuously administered intragastrically for 30 days with a dose of 20 ml/kg. The mice were sacrificed the next day after drug withdrawal and the indicators were tested. The long diameter and short diameter of the tumor, and the body weight of each mouse were recorded every 3 days from drug administration to nude mouse sacrifice.
The body weight of the nude mice and the long diameter (a) and short diameter (b) of the transplanted tumor were measured every 3 days, and the tumor volume (v), relative tumor volume (RTV) and relative tumor proliferation rate (T/C) are calculated respectively according to the following formulas, wherein V=a×b^2/2; RTV=V/V0 (V0 is the tumor volume before administration, V is the tumor volume before sacrifice), and T/C (%)=treatment group RTV/model control group RTV×100%.
Each mouse was weighed and sacrificed. After the tumor was completely stripped off from the body of the mouse, the non-tumor tissues such as blood stains and fat were removed to weigh the tumor and calculate the tumor growth inhibition rate. The average tumor weight of each group of mice is used as an indicator of efficacy. Tumor growth inhibition rate (%)=(1−the average tumor weight of the treatment group/the average tumor weight of the model group)×100%.

[2] = Thymus index and spleen index of Lewis lung cancer tumor-bearing mice; details: n = 6
Procedure: In the Lewis lung cancer model, the mice inoculated with the tumor were randomly divided into groups with 10 mice in each group the next day of inoculation. The groups included: a model control group, a positive drug cyclophosphamide control group (CTX, 30 mg/kg), isovaleryl spiramycin I groups with doses of 13, 26 and 52 mg/kg; isovaleryl spiramycin II groups with doses of 13, 26 and 52 mg/kg; isovaleryl spiramycin III groups with doses of 13, 26 and 52 mg/kg. Each group was continuously administered intragastrically for 15 days with a dose of 20 ml/kg.

[3] = U937, high dose (100 mg/kg in method) i.g. 30 days
[4] = U937, low dose (25 mg/kg in method) i.g. 30 days
[5] = U937, medium dose (50 mg/kg in method) i.g. 30 days

SMILES	Relative Tumor Proliferation Rate (T/C) [1, 3]	tumor growth inhibition rate [1, 3]	Relative Tumor Proliferation Rate (T/C) [1, 4]	tumor growth inhibition rate [1, 4]	tumor volume and relative tumor volume compared with the model group ([1]; U937)	Relative Tumor Proliferation Rate (T/C) [1, 5]	tumor growth inhibition rate [1, 5]	Inhibition Rate (%) ([1]; U937 nude mice, 12.5 mg/kg)	Relative Tumor Proliferation Rate (T/C) ([1]; U937 nude mice, 12.5 mg/kg)	Relative Tumor Volume (RTV) ([1]; U937 nude mice, 12.5 mg/kg)	Tumor Weight ([1]; U937 nude mice, 12.5 mg/kg)	Tumor Volume (mm3) (d 1) ([1]; U937 nude mice, 12.5 mg/kg)	Tumor Volume (mm3) (d30) ([1]; U937 nude mice, 12.5 mg/kg)	Inhibition Rate (%) ([1]; U937 nude mice, 25 mg/kg)	Relative Tumor Proliferation Rate (T/C) ([1]; U937 nude mice, 25 mg/kg)	Relative Tumor Volume (RTV) ([1]; U937 nude mice, 25 mg/kg)	Tumor Weight ([1]; U937 nude mice, 25 mg/kg)	Tumor Volume (mm3) (d 1) ([1]; U937 nude mice, 25 mg/kg)	Tumor Volume (mm3) (d30) ([1]; U937 nude mice, 25 mg/kg)	Inhibition Rate (%) ([1]; U937 nude mice, 50 mg/kg)	also measured
COC1C(OC(C)=O)CC(=O)OC(C)CC=CC=CC(OC2CCC(N(C)C)C(C)O2)C(C)CC(CC=O)C1OC1OC(C)C(OC2CC(C)(O)C(OC(=O)CC(C)C)C(C)O2)C(N(C)C)C1O (stereo not shown) [Isovaleryl spiramycin II, isovaleryl spiramycin II]	46.09%	43.63%	74.19%	25.61%	significantly lower	52.10%	35.44%	25.61%	74.19%	12.64 ± 5.00	1.44 ± 0.64 g	111.58 ± 23.26 mm3	1400.95 ± 558.82 mm3	35.44%	52.10%	8.88 ± 2.64	1.25 ± 0.66 g	120.21 ± 24.68 mm3	1117.59 ± 565.29 mm3	43.63%	Relative Tumor Proliferation Rate (T/C) ([1]; U937 nude mice, 50 mg/kg): 46.09%; Relative Tumor Volume (RTV) ([1]; U937 nude mice, 50 mg/kg): 7.85 ± 3.27; Tumor Weight ([1]; U937 nude mice, 50 mg/kg): 1.09 ± 0.62 g; Tumor Volume (mm3) (d 1) ([1]; U937 nude mice, 50 mg/kg): 111.50 ± 7.03 mm3; Tumor Volume (mm3) (d30) ([1]; U937 nude mice, 50 mg/kg): 885.75 ± 418.53 mm3; mouse weight compared with the model group [1]: no significant changes; Body Weight (g) (d1) ([1]; 12.5 mg/kg): 21.10 ± 0.64 g; Body Weight (g) (d30) ([1]; 12.5 mg/kg): 20.97 ± 0.74 g; Body Weight (g) (d1) ([1]; 25 mg/kg): 21.05 ± 0.30 g; Body Weight (g) (d30) ([1]; 25 mg/kg): 21.03 ± 0.632 g; Body Weight (g) (d1) ([1]; 50 mg/kg): 20.80 ± 0.51 g; Body Weight (g) (d30) ([1]; 50 mg/kg): 21.22 ± 0.51 g; Spleen Index (%) ([2]; dose 13 mg/kg): 0.75 ± 0.24%; Thymus Index (%) ([2]; dose 13 mg/kg): 0.12 ± 0.08%; Spleen Index (%) ([2]; dose 26 mg/kg): 0.68 ± 0.21%; Thymus Index (%) ([2]; dose 26 mg/kg): 0.14 ± 0.02%; Spleen Index (%) ([2]; dose 52 mg/kg): 0.66 ± 0.17%; Thymus Index (%) ([2]; dose 52 mg/kg): 0.15 ± 0.09%
CCC(=O)O[C@@H]1CC(=O)O[C@H](C)C/C=C/C=C/[C@H](O[C@H]2CC[C@H](N(C)C)[C@@H](C)O2)[C@H](C)C[C@H](CC=O)[C@H](O[C@@H]2O[C@H](C)[C@@H](O[C@H]3C[C@@](C)(O)[C@@H](OC(=O)CC(C)C)[C@H](C)O3)[C@H](N(C)C)[C@H]2O)[C@H]1OC [Isovaleryl spiramycin III, isovaleryl spiramycin III]	38.66%	61.77%	63.36%	41.19%	significantly lower	49.30%	53.03%	41.19%	63.36%	10.80 ± 3.02	1.14 ± 0.54 g	119.70 ± 18.30 mm3	1314.25 ± 479.76 mm3	53.03%	49.30%	8.40 ± 2.25	0.91 ± 0.51 g	112.93 ± 27.42 mm3	939.79 ± 296.72 mm3	61.77%	Relative Tumor Proliferation Rate (T/C) ([1]; U937 nude mice, 50 mg/kg): 38.66%; Relative Tumor Volume (RTV) ([1]; U937 nude mice, 50 mg/kg): 6.59 ± 0.90; Tumor Weight ([1]; U937 nude mice, 50 mg/kg): 0.74 ± 0.18 g; Tumor Volume (mm3) (d 1) ([1]; U937 nude mice, 50 mg/kg): 112.85 ± 21.90 mm3; Tumor Volume (mm3) (d30) ([1]; U937 nude mice, 50 mg/kg): 728.49 ± 51.66 mm3; mouse weight compared with the model group [1]: no significant changes; Body Weight (g) (d1) ([1]; 12.5 mg/kg): 20.84 ± 0.68 g; Body Weight (g) (d30) ([1]; 12.5 mg/kg): 20.92 ± 0.63 g; Body Weight (g) (d1) ([1]; 25 mg/kg): 20.91 ± 0.58 g; Body Weight (g) (d30) ([1]; 25 mg/kg): 20.74 ± 0.352 g; Body Weight (g) (d1) ([1]; 50 mg/kg): 21.16 ± 0.61 g; Body Weight (g) (d30) ([1]; 50 mg/kg): 21.24 ± 0.50 g; Spleen Index (%) ([2]; dose 13 mg/kg): 0.62 ± 0.25%; Thymus Index (%) ([2]; dose 13 mg/kg): 0.12 ± 0.10%; Spleen Index (%) ([2]; dose 26 mg/kg): 0.68 ± 0.11%; Thymus Index (%) ([2]; dose 26 mg/kg): 0.11 ± 0.07%; Spleen Index (%) ([2]; dose 52 mg/kg): 0.74 ± 0.23%; Thymus Index (%) ([2]; dose 52 mg/kg): 0.13 ± 0.06%
